Data as given in patent publication US11129819B2, “Fumarate analogs and uses thereof” (Rigel Pharmaceuticals, Inc., priority 2014, dated 2021).
Where a name gives a salt, the structure may show the parent alone.

tested on: NrF2 (Nuclear factor (erythroid-derived 2)-like 2); assay: NrF2 activation in a whole cell nuclear translocation assay; type: cell-based; conditions: read-out: NrF2 translocation assay EC50
Protocol: NrF2 Activation in a Whole Cell Nuclear Translocation Assay Compounds were tested in a NrF2 (Nuclear factor (erythroid-derived 2)-like 2) translocation assay by adapting the methods set forth in U.S. Pat. No. 8,101,373, the disclosure of which is incorporated herein by reference.

| Structure (SMILES) | EC50 [µM] |
| --- | --- |
| COC(=O)/C=C/n1nn[nH]c1=O [Compound 1, methyl (E)-3-(5-oxo-4,5-dihydro-1H-tetrazol-1-yl)acrylate] | 61 |
| COC(=O)/C=C/n1nnn(C(C)C)c1=O [Compound 6, methyl (E)-3-(4-isopropyl-5-oxo-4,5-dihydro-1H-tetrazol-1-yl)acrylate] | 7.8 |
| COC(=O)/C=C/n1nnn(C(=O)N(C)C)c1=O [Compound 10, Methyl (E)-3-(4-(dimethylcarbamoyl)-5-oxo-4,5-dihydro-1H-tetrazol-1-yl)acrylate] | 6.1 |
| COC(=O)/C=C/n1nnn(C2CC2)c1=O [Compound 21, methyl (E)-3-(4-cyclopropyl-5-oxo-4,5-dihydro-1H-tetrazol-1-yl)acrylate] | 7.2 |
| COC(=O)/C=C/n1nnn(CC(=O)OC)c1=O [Compound 14, methyl (E)-3-(4-(2-methoxy-2-oxoethyl)-5-oxo-4,5-dihydro-1H-tetrazol-1-yl)acrylate] | 6.7 |
| COC(=O)/C=C/n1nnn(/C=C/C(=O)OC)c1=O [Compound 20, dimethyl 3,3′-(5-oxo-1H-tetrazole-1,4(5H)-diyl)(2E,2′E)-diacrylate] | 0.7 |
| COC(=O)/C=C/n1nnn(C2CCCC2)c1=O [Compound 11, methyl (E)-3-(4-cyclopentyl-5-oxo-4,5-dihydro-1H-tetrazol-1-yl)acrylate] | 5.4 |
| COC(=O)/C=C/n1nnn(C2CCOCC2)c1=O [Compound 12, methyl (E)-3-(5-oxo-4-(tetrahydro-2H-pyran-4-yl)-4,5-dihydro-1H-tetrazol-1-yl)acrylate] | 10.4 |
| COC(=O)/C=C/n1nnn(-c2ccccc2)c1=O [Compound 16, methyl (E)-3-(5-oxo-4-phenyl-4,5-dihydro-1H-tetrazol-1-yl)acrylate] | 1 |

same assay, conditions: reference fumarates, read-out: NrF2 activation EC50

| Structure (SMILES) | EC50 [µM] |
| --- | --- |
| COC(=O)/C=C/C(=O)OC [dimethyl fumarate, reference compound] | ~7.9 |
| COC(=O)/C=C/C(=O)O [Monomethyl fumarate, monomethyl fumarate, reference compound] | ~127 |

tested on: experimental autoimmune encephalomyelitis (EAE); assay: Autoimmune encephalitis (EAE) in vivo assay in mice; parameters: species or system C57BL/6 mice; conditions: dosed at 60 mg/kg beginning on the day of immunization, 60 mg/kg

| Structure (SMILES) | onset of disease paralysis |
| --- | --- |
| COC(=O)/C=C/n1nn[nH]c1=O [Compound 1, methyl (E)-3-(5-oxo-4,5-dihydro-1H-tetrazol-1-yl)acrylate] | significantly prevented the onset of disease paralysis |

same assay, conditions: dosed at 60 mg/kg beginning on the day of immunization, listed as compound 1, 60 mg/kg

| Structure (SMILES) | onset of disease paralysis |
| --- | --- |
| COC(=O)/C=C/n1nn[nH]c1=O [Compound 1, methyl (E)-3-(5-oxo-4,5-dihydro-1H-tetrazol-1-yl)acrylate] | significantly prevents the onset of disease paralysis |
